Values quoted from earlier work, collected in patent US11707464B2, “Methods of treating heavy menstrual bleeding” (AbbVie Inc., priority 2013, dated 2023).

Test system: women with symptomatic uterine fibroids
Settings: 185 women with HMB associated with uterine fibroids; through 6 months; cited from earlier work

## CCNC(=O)[C@@H]1CCCN1C(=O)[C@H](CCCN=C(N)N)NC(=O)[C@H](CC(C)C)NC(=O)[C@@H](Cc1c[nH]c2ccccc12)NC(=O)[C@H](Cc1ccc(O)cc1)NC(=O)[C@H](CO)NC(=O)[C@H](Cc1c[nH]c2ccccc12)NC(=O)[C@H](Cc1cnc[nH]1)NC(=O)[C@@H]1CCC(=O)N1 [deslorelin]
  efficacy (reduction in uterine bleeding and volume) when dosed with low-dose transdermal E2: maintained
